{"source": "patent US20150352034A1", "about": "“Personal Care Products Containing Microalgae or Extracts Thereof” (Solazyme, Inc., priority 2014, published 2015)", "key": {"MatTek's EpiDerm tissue": {"system": "MatTek's EpiDerm tissue", "assay": "UVB protection assay, MTT tissue viability", "type": "cell-based, human", "conditions": "300 mJ/cm^2 UVB, then 1 mM, 100 μl topically for 24 hours; in % (unit assumed)", "protocol": "MatTek's EpiDerm tissue, a skin model that consists of normal human-derived epidermal keratinocytes cultured to form a multilayered, highly differentiated model of the human epidermis, was used to measure changes in tissue viability. The tissues were exposed to 300 mJ/cm^2 of UVB radiation and subsequently topically treated with the aforementioned test materials over a period of 24 hours. Materials were tested for their abilities to either maintain tissue viability after UVB exposure or aid in the recovery of tissue damaged by UVB radiation. […] The MTT analysis involved a colorimetric analysis of tissue metabolic activity, the increased presence of color indicating the presence of metabolically-active living cells. Reduction of MTT by mitochondria in viable cells results in purple formazin crystals; the intensity of the purple color is directly proportional to metabolically active cells in the tissue. The tissues were stored at 4° C. until used. […] One gram of WAF was mixed with 10 ml of water for one hour at room temperature. The WAF-water mixture was then centrifuged for 5 minutes to pellet any undissolved material and the supernatant was used for topical application. The Sample B, Sample F, and Sample A were applied topically without any further processing. […] Reduced MTT was subsequently extracted from the tissues and colorimetrically analyzed at 540 nm to determine tissue viability."}, "[1]": {"system": "thymine dimers in genomic DNA of MatTek's EpiDerm tissue", "assay": "Thymine dimer formation after UVB", "type": "cell-based, human", "conditions": "300 mJ/cm^2 UVB, then 1 mM, 100 μl topically for 24 hours", "protocol": "This method was designed to evaluate changes in tissue DNA thymine dimer content after exposure to UVB. The testing system used for this assay was MatTek's EpiDerm tissue, a skin model that consists of normal human-derived epidermal keratinocytes cultured to form a multilayered, highly differentiated model of the human epidermis. For this study, the tissues were exposed to UVB (300 mJ/cm^2) and then treated topically for 24 hours with the test material. Following the treatment the DNA was extracted from the EpiDerm tissues and assayed for thymine dimer content. For the assay, samples of the DNA were immobilized on a solid membrane support and incubated with an antibody that recognizes thymine dimers in double stranded DNA. The primary antibody was then detected using a secondary antibody conjugated to a fluorescent dye. The membrane was then scanned using an excitation laser and emission filter combination appropriate for the fluorescent dye. With this method, the fluorescence intensity of each sample is proportional to the amount of the thymine dimers present in the sample. […] UVB lamp intensity was measured using a UVX radiometer with a probe specific for UVB (detects 260-360 nm, max absorbance at 310 nm, calibrated at 310 nm) to determine exposure times required for the appropriate UVB dose. […] Extracted DNA was quantified via a fluorometric assay. […]"}, "[2]": {"system": "elastin synthesis in fibroblasts", "assay": "Elastin Assay (ELISA, fibroblast culture medium)", "type": "cell-based", "conditions": "48 h", "protocol": "(§1) The type I C-peptide fragment was measured because procollagen, a precursor to mature collagen, is cleaved in collagen and type I C-peptide fragments in a 1:1 ratio. By measuring the amount of type I C-peptide fragments in the tissue medium, collagen production was measured. Elastin was measured directly from the cell culture medium. Hyaluronic acid was measured in the tissue culture media. All measurements were performed using an ELISA based method.\n(§2) Powder materials were prepared by combining 1 gram of the powder material with either 10 ml ultrapure water or 10 ml of DMSO. The mixtures were incubated for one hour at room temperature on a rocking platform to saturate the extraction medium with the test material. The mixture was then centrifuged to separate the saturated extract solution from the undissolved solid materials. The oil based materials were prepared as a stock solution in DMSO and then diluted into the culture media such that the final concentration of DMSO was 1%. A 1% DMSO control was included to account for any effect the solvent might have when evaluating the effect of the oils or DMSO prepared powders. […]\nA set of alpha-elastin standards was generated ranging from 0 to 100 ng/ml. […] After the final incubation, the plate was read at 460 nm using a plate reader."}, "[3]": {"system": "hyaluronic acid synthesis in fibroblasts", "assay": "Hyaluronic Acid Assay (ELISA, fibroblast culture medium)", "type": "cell-based", "protocol": "as §1\nPowder materials were prepared by combining 1 gram of the powder material with either 10 ml ultrapure water or 10 ml of DMSO. The mixtures were incubated for one hour at room temperature on a rocking platform to saturate the extraction medium with the test material. The mixture was then centrifuged to separate the saturated extract solution from the undissolved solid materials. The oil based materials were prepared as a stock solution in DMSO and then diluted into the culture media such that the final concentration of DMSO was 1%. A 1% DMSO control was included to account for any effect the solvent might have when evaluating the effect of the oils or DMSO prepared powders.\nThe fibroblast cell culture was prepared by seeding fibroblasts into the individuals wells of a 24-well plate in 0.5 ml of Fibroblast Growth Media (FGM) and incubated overnight at 37±2° C. and at 5±1% CO2. The media was removed via aspiration to eliminate non-adherent cells and replaced with 0.5 ml of fresh FGM. The medium was changed every 48 to 72 hours until the cells growth reached confluency. Once confluent, the cells were treated for 24 hours with DMEM supplemented with 1.5% FBS to wash out any growth factors present in the normal culture media.\nThe prepared fibroblast cell cultures were then treated with the prepared test materials at the aforementioned concentrations dissolved in FGM with 1.5% FBS. TGF-B at a concentration of 50 ng/ml was used as a positive control for collagen and elastin, and dibutyrl cAMP at a concentration of 0.1 mM was used as a positive control for hyaluronic acid. Untreated cells received DMEM with 1.5% FBS. The cells were incubated for 48 hours and then either frozen or assayed immediately. Materials were tested in triplicate.\nA series of hyaluronic acid standards was prepared ranging from 50 ng/ml to 3,200 ng/ml. Next, 100 μl of each standard (in duplicate) and sample was transferred to a well in an incubation plate. After adding 50 μl of detection solution to each well (except the reagent blank wells) the plate was incubated for 1±0.25 hour at 37±2° C. […] After this final incubation 50 μl of stop solution was added to each well and the absorbance of the plate was measured at 405 nm using a plate reader."}, "[4]": {"system": "procollagen synthesis in fibroblasts", "assay": "Type I Collagen Assay (type I C-peptide ELISA, fibroblast culture medium)", "type": "cell-based", "conditions": "48 h", "protocol": "as §1, §2\nA series of type I C-peptide standards were prepared ranging from 0 ng/ml to 640 ng/ml for the procollagen assay. […] After the incubation 100 μl of stop solution (1 N sulfuric acid) was added to each well and the plate was read using a microplate reader at 450 nm."}}}
{"compound": "Cc1c(C)c2c(c(C)c1O)CCC(C)(C(=O)O)O2", "note": "(stereo not shown) [Trolox, 6-hydroxy-2,5,7,8-tetramethylchroman-2-carboxylic acid]", "values": [{"measurement": "Viability", "setting": "MatTek's EpiDerm tissue", "value": "98 ± 5.6"}, {"measurement": "Thymine Dimer Formation", "setting": "[1]", "value": "296.5 ± 12.2", "unit": "ng/mL"}]}
{"compound": "CCCC(=O)Nc1ncnc2c1ncn2[C@@H]1O[C@@H]2COP(=O)(O)O[C@H]2[C@H]1OC(=O)CCC", "note": "[dBcAMP, dibutyrl cAMP]", "values": [{"measurement": "Elastin", "setting": "[2]; 0.1 mM", "value": "43 ± 16", "unit": "ng/mL"}, {"measurement": "Hyaluronic Acid", "setting": "[3]; Table Va, 0.1 mM, 48 h", "value": "494 ± 51", "unit": "ng/mL"}, {"measurement": "Hyaluronic Acid", "setting": "[3]; Table Vb, 0.1 mM", "value": "547 ± 31", "unit": "ng/mL"}, {"measurement": "Type I C-Peptide", "setting": "[4]; 0.1 mM", "value": "3438 ± 277", "unit": "ng/mL"}]}
{"compound": "TGF-B", "values": [{"measurement": "Elastin", "setting": "[2]; 50 ng/ml", "value": "178 ± 6", "unit": "ng/mL"}, {"measurement": "Hyaluronic Acid", "setting": "[3]; Table Va, 50 ng/ml, 48 h", "value": "260 ± 34", "unit": "ng/mL"}, {"measurement": "Hyaluronic Acid", "setting": "[3]; Table Vb, 50 ng/ml", "value": "528 ± 96", "unit": "ng/mL"}, {"measurement": "Type I C-Peptide", "setting": "[4]; 50 ng/ml", "value": "5282 ± 178", "unit": "ng/mL"}]}
